The experiment relates to 843782-103-R-J1-PDC complex spheroid viability. Description: Anticancer human tumor 843782-103-R-J1-PDC patient-derived lung adenocarcinoma cell line growth inhibition [RAS]. The note with it: for viability, T/C: stronger effect = lower value. Put shortly:
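Agents were tested in combination matrices in half-log decrements from a top concentration at or near clinical Cmax (10 microM if undetermined). Targets were multi-cell spheroids of tumour lines plus HUVEC and MSC stromal cells.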

Molecules are shown by their SMILES. Values joined by “and” are separate entries in the source; they are usually repeats but may differ in a detail not shown here. Equal values may be shown once.

For three compounds, IC50 and viability, T/C results are on record in PubChem BioAssay AID2060883 (Molecular Pharmacology Branch, DTP, NCI, 2025).
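Note: viability read after seven days of compound exposure.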

The term IC50 denotes the concentration that inhibits the measured activity by half. Broadly, the viability, T/C is the ratio of treated to control. With `CC1(O)CCCC1n1c(=O)c(C(F)F)cc2cnc(NC3CCN(S(C)(=O)=O)CC3)nc21` (stereo not given) + CCn1c(-c2cc(N3CCN(C)CC3)cnc2C(C)OC)c2c3cc(ccc31)-c1csc(n1)CC(NC(=O)C1CC1C)C(=O)N1CCCC(N1)C(=O)OCC(C)(C)C2, the IC50 by setting is: (curve of first compound, second compound 0.000949 µM) 0.123 µM; (curve of first compound, second compound 0.003 µM) 0.0527 µM; (curve of first compound, second compound 0.00949 µM) under 0.0316 µM; (curve of first compound, second compound 0.03 µM) under 0.0316 µM; (curve of first compound, second compound 0.0949 µM) under 0.0316 µM; (curve of first compound, second compound 0.3 µM) under 0.0316 µM. In addition, the viability, T/C by setting is: (second compound 0.000949 µM, first compound 0.0316 µM) 68.6%; (second compound 0.000949 µM, first compound 0.1 µM) 57%; (second compound 0.000949 µM, first compound 0.316 µM) 18.5%; (second compound 0.000949 µM, first compound 1 µM) 14.9%; (second compound 0.000949 µM, first compound 3.16 µM) 11.1%; (second compound 0.000949 µM, first compound 10 µM) 2.8%. Moreover, the viability, T/C (second compound 0.003 µM, first compound 0.0316 µM) is 58.1%; the viability, T/C (second compound 0.003 µM, first compound 0.1 µM) was 42.5%; the viability, T/C (second compound 0.003 µM, first compound 0.316 µM) was 16.6%; the viability, T/C (second compound 0.003 µM, first compound 1 µM) was 17.5%; the viability, T/C (second compound 0.003 µM, first compound 3.16 µM) was 13.2%; the viability, T/C (second compound 0.003 µM, first compound 10 µM) is 2.6%. In addition, the viability, T/C reads like this: (second compound 0.00949 µM, first compound 0.0316 µM) 37.4%; (second compound 0.00949 µM, first compound 0.1 µM) 24.2%; (second compound 0.00949 µM, first compound 0.316 µM) 14.6%; (second compound 0.00949 µM, first compound 1 µM) 15.8%; (second compound 0.00949 µM, first compound 3.16 µM) 13.1%; (second compound 0.00949 µM, first compound 10 µM) 3.41%. The viability, T/C is, setting by setting: (second compound 0.03 µM, first compound 0.0316 µM) 18.4%; (second compound 0.03 µM, first compound 0.1 µM) 15.7%; (second compound 0.03 µM, first compound 0.316 µM) 13%; (second compound 0.03 µM, first compound 1 µM) 12.7%; (second compound 0.03 µM, first compound 3.16 µM) 13.5%; (second compound 0.03 µM, first compound 10 µM) 2.9%. Further, the viability, T/C (second compound 0.0949 µM, first compound 0.0316 µM) was 15.8%; the viability, T/C (second compound 0.0949 µM, first compound 0.1 µM) is 13.8%; the viability, T/C (second compound 0.0949 µM, first compound 0.316 µM) was 10.8%; the viability, T/C (second compound 0.0949 µM, first compound 1 µM) is 11.4%; the viability, T/C (second compound 0.0949 µM, first compound 3.16 µM) is 12%; the viability, T/C (second compound 0.0949 µM, first compound 10 µM) was 3.5%. Moreover, the viability, T/C (second compound 0.3 µM, first compound 0.0316 µM) was 14.1%; the viability, T/C (second compound 0.3 µM, first compound 0.1 µM) is 13.6%; the viability, T/C (second compound 0.3 µM, first compound 0.316 µM) is 9.45%; the viability, T/C (second compound 0.3 µM, first compound 1 µM) was 10%; the viability, T/C (second compound 0.3 µM, first compound 3.16 µM) is 9.83%; the viability, T/C (second compound 0.3 µM, first compound 10 µM) is 3.16%.
On to `C[C@@H](NC(=O)c1ncnc(N)c1Cl)c1ncc(C(=O)Nc2cc(C(F)(F)F)c(Cl)cn2)s1`, for which the viability, T/C is 103% and 104% and 109% (2×) (compound 0.0316 µM); 105% [middle of 4 runs] (compound 0.1 µM); 99.7% [middle of 4 runs] (compound 0.316 µM); 104% (2×) and 113% and 98% (compound 1 µM); 109% [middle of 4 runs] (compound 3.16 µM); 103% [middle of 4 runs] (compound 10 µM). Also, where the note is “curve of compound”, the IC50 is over 10 µM.
In the case of `CCC(CC)c1cc(NC2CCC(N)C2)n2nccc2n1` (stereo not given), the viability, T/C runs as follows: (compound 0.0316 µM) 114% and 109% and 101% (2×); (compound 0.1 µM) 107% [middle of 4 runs]; (compound 0.316 µM) 101% [middle of 4 runs]; (compound 3.16 µM) 2.11% [middle of 4 runs]; (compound 10 µM) 0.82% [middle of 4 runs]. For the same compound, where the note is “curve of compound”, the IC50 is 1.78 µM [middle of 4 runs].
